Measured values from PubChem BioAssay (NCI).
“And” between values parts separate entries of the source, which are not always exact repeats. Equal values may be shown once.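 Grown in 96-well plates, cells were treated for 48 hours with each compound at five concentrations. Insufficient inhibition: endpoint recorded as highest concentration tested. The concentration for 50% growth inhibition is given as GI50. At the TGI there is no net growth.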

Legend:
Assay in all cases: growth of human tumour cells (NCI), 48 h
[1] = tested on: MALME-3M melanoma
[2] = tested on: SK-MEL-2 melanoma
[3] = tested on: SF-539 CNS
[4] = tested on: MOLT-4 leukemia
[5] = tested on: HL-60(TB) leukemia
[6] = tested on: UO-31 renal
[7] = tested on: A549 NSCLC
[8] = tested on: M14 melanoma
[9] = tested on: SK-OV-3 ovarian
[10] = tested on: SN12C renal

SMILES | TGI [1] | TGI [2] | TGI [3] | TGI [4] [µM] | TGI [5] | TGI [6] [µM] | TGI [7] [µM] | TGI [8] [µM] | TGI [9] | TGI [10] [µM] | GI50 [1] | GI50 [2] | GI50 [3] | GI50 [4] | GI50 [5] | GI50 [6] | GI50 [7] | GI50 [8] | GI50 [9] | GI50 [10]
O=C(CCCCCCCCCCc1ccccc1)c1c(O)cccc1O | 34.3 µM | 31.3 µM | 34.8 µM | 61.8 | 71.6 µM | 38.7 | 76.1 | 35.6 | > 100 µM | 34.6 |  |  |  |  |  |  |  |  |  | 
O=C(N[C@@H]1CCCc2ccccc21)[C@H](CCC(=O)N1CCN(C2CCCCC2)CC1)N1C(=O)[C@@H](N2C(=O)OC[C@@H]2c2ccccc2)[C@H]1/C=C/c1ccccc1 | 3.15 µM | 4.29 µM | 3.42 µM | > 100 | 5.71 µM | 8.68 | 14.8 | 3.31 | 14 µM | 27.3 | 1.63 µM | 1.92 µM | 1.74 µM | 2.27 µM | 2.1 µM | 2.01 µM | 2.6 µM | 1.47 µM | 3.02 µM | 3.72 µM
COc1ccc([Se]c2ccc(OC)cc2OC)c(OC)c1 | > 100 µM | 92.2 µM | > 100 µM | > 100 | > 100 µM | 65.8 | > 100 | > 100 | 92.1 µM | > 100 |  |  |  |  |  |  |  |  |  | 
CCOC(=O)/C=C1\Nc2ccccc2C(c2ccccc2)=NC1OC(C)=O (configuration not stated) | > 100 µM | > 100 µM | > 100 µM | > 100 | > 100 µM | > 100 | > 100 | > 100 | > 100 µM | > 100 |  |  |  |  |  |  |  |  |  | 
CN1CC2(CCCCC2)C(O)C12C=CCCC2 (configuration not stated) | > 100 µM | > 100 µM | > 100 µM | > 100 | > 100 µM | > 100 | > 100 | > 100 | > 100 µM | > 100 |  |  |  |  |  |  |  |  |  | 
O=c1c2ccccc2nc(-c2ccccc2)n1NCC1(O)OCC(O)C(O)C1O (configuration not stated) | > 100 µM | > 100 µM | > 100 µM | > 100 | > 100 µM | > 100 | > 100 | > 100 | > 100 µM | > 100 |  |  |  |  |  |  |  |  |  | 
COc1ccccc1C(=O)c1cnc(NC2CCN(S(C)(=O)=O)CC2)nc1N | > 25 µM | > 25 µM | 15.2 µM | > 25 | 14.3 µM | > 25 | > 25 | > 25 | > 25 µM | > 25 | > 16.4 µM | 9.93 µM | 4.97 µM | 6.43 µM | 3.96 µM | 7.43 µM | 4.68 µM | 10.2 µM | > 25 µM | 5.48 µM
Brc1ccc2c(c1)C1(c3cc(Br)ccc3-2)c2cc(Br)ccc2-c2ccc(Br)cc21 | > 100 µM | > 100 µM | > 100 µM | > 100 | > 100 µM | > 100 | > 100 | > 100 | > 100 µM | > 100 |  |  |  |  |  |  |  |  |  | 
O=C(O)c1cc(Cl)cc(NC(=O)C(Cl)Cl)c1Cl | > 100 µM | > 100 µM | > 100 µM | > 100 | > 100 µM | > 100 | > 100 | > 100 | > 100 µM | > 100 |  |  |  |  |  |  |  |  |  | 
Cc1ccc(NC(=O)CCC(=O)C2CC(=O)CC/C2=N\NC(=O)c2cc3ccccc3cc2O)cc1C (configuration not stated) | 90.2 µM | 82.7 µM | 87.3 µM | 99.6 | 29.9 µM | 59.3 | > 100 | 88.9 | > 100 µM | > 100 |  |  |  |  |  |  |  |  |  | 
Cn1c(=O)n(-c2ccc(C(C)(C)C#N)cc2)c2c3cc(-c4cnc5ccccc5c4)ccc3ncc21 | 0.04 µM and 0.0568 µM | 0.0505 µM and 0.292 µM and 0.0744 µM | 0.0761 µM and 0.0316 µM and 0.118 µM |  | 2.4 µM and > 5.01 µM | 0.0749 |  |  | 0.0442 µM and 0.0549 µM and 0.0293 µM | > 100 | 0.00576 µM and < 0.01 µM | 0.012 µM and 0.00598 µM and 0.0137 µM | < 0.01 µM and 0.00503 µM | 0.025 µM and 0.00703 µM and 0.0148 µM | 0.0701 µM and 0.0705 µM and 0.0783 µM | < 0.01 µM and 0.00361 µM | 0.0102 µM and 0.00594 µM and < 0.01 µM | 0.018 µM and 0.00656 µM and < 0.01 µM | < 0.01 µM and 0.00494 µM | 0.0101 µM and 0.00461 µM and < 0.01 µM
O=C1OC(c2ccc(O)cc2)(c2ccc(O)cc2)c2cccc3cccc1c23 | 43.4 µM | 31.2 µM | 29 µM | 33.8 | 45.5 µM | 28.9 | 36.2 | 33 | 33.1 µM | 38.4 | 20 µM | 15.6 µM | 15.2 µM | 11.7 µM | 18 µM | 12.5 µM | 14.4 µM | 16.4 µM | 18.8 µM | 12.7 µM
CCCC/C(=N\N=C(N)N)c1ccc(F)cc1 | 18.5 µM | 9.4 µM | 8.59 µM | 24.4 | 6.09 µM | 20.1 | 16.7 | 10.4 | 11 µM | 17.3 | 4.13 µM | 3.09 µM | 2.77 µM | 3.35 µM | 2.29 µM | 5.28 µM | 4.66 µM | 2.35 µM | 2.61 µM | 4.37 µM
